# Reference: patent publication US10669240B2, “5-substituted indazole-3-carboxamides and preparation and use thereof” (Samumed, LLC, priority 2014, dated 2020)
# Read-outs that look alike come from different tables or passages of the source.
# How the values were obtained:
# Format in all cases: cell-based
# DYRK1A = DYRK1A (Homo sapiens (Human), UniProt Q13627); test: DYRK1A activity Tau assay: pSer396 Tau in SH-SY5Y cells by ELISA / western blot; conditions: overnight (16-18 h) exposure
# Source text: In another example, in vitro assays for DYRK1A biological activity may be used, e.g. regulation of microtubule-associated protein tau (MAPT/Tau) phosphorylation in neuronal cell line such as the human SH-SY5Y neuroblastoma cell line. Assays for DYRK1a-regulated level of phosphorylation can include monitoring levels of basal pSer396 Tau, which can be measured, for example, by serial dilutions of a candidate inhibitor composition using a ten micromolar top concentration and detected by ELISA or Western Blotting. An exemplary assay for DYRK-1a-regulated phosphorylation uses the SH-SY5Y cells cultured in a 96 well plate format for a period of time sufficient to stabilize microtubules and Tau phosphorylation, usually at least 2 days, then treated with a 1/3 serial dilution of compounds overnight and lysed. The cell lysate is resolved by SDS PAGE, then transferred to nitrocellulose and probed with an antibody specific for pSer396 Tau.
# In a further example, the activity of a candidate compound can be measured by ELISA by adding the lysate mentioned above onto total Tau-coated plates and detected with a specific pSer396 antibody.
# [1] = test system: primary human mesenchymal stem cells (hMSCs); test: Chondrogenesis assay in primary human mesenchymal stem cells, nodule count vs TGF-β3 positive control; conditions: 6 days; for Conc (nM) of Max. activity: 6-point dose-response 2700 nM to 10 nM, dose at which maximum chondrogenesis activity was reached; for Conc (nM) of 100% TGF-β3 activity: concentration required to induce chondrogenesis equivalent to TGF-β3 (10 ng/mL); for Max. Activity as % TGF-β3 activity: relative to TGF-β3 (10 ng/mL) positive control
# Source text: The above synthesized compounds were screened using primary human mesenchymal stem cells (hMSCs) to determine their ability to induce chondrogenesis (process by which cartilage is developed).
# Human Mesenchymal Stem Cell Culture:
# Primary human mesenchymal stem cells (hMSCs) were purchased from Lonza (Walkersville, Md.) and expanded in Mesenchymal Stem Cell Growth Media (Lonza). Cells between passage 3 and 6 were used for the experiments.
# Number of nodules in each well was normalized to the average of 3 DMSO treated wells on the same plate using Excel (Microsoft Inc.). The normalized averages (fold change over DMSO) of 3 replicate wells for each compound concentration were calculated. Due to solubility limitations of some of the compounds, curve fitting was incomplete leading to inaccurate EC50 determinations.
# Using TGF-β3 as a positive control, the concentration of test compounds required to induce equivalent levels of chondrogenesis is reported. In addition, the maximum activity of each compound and the respective dose that each compound reached maximum chondrogenesis activity is reported.
# [2] = test system: Wnt activity (Wnt-responsive SP5 promoter luciferase reporter in SW480 cells); test: Wnt activity reporter assay: SW480 cells with SP5 promoter-driven firefly luciferase; conditions: 24 h after compound addition, read-out: Wnt inhibition
# Source text: The above synthesized compounds were screened using the assay procedure for Wnt activity described below.
# Reporter cell lines were generated by stably transducing cells of cancer cell lines (e.g., colon cancer) with a lentiviral construct that include a Wnt-responsive promoter driving expression of the firefly luciferase gene.
# Lentiviral constructs were made in which the SP5 promoter, a promoter having eight TCF/LEF binding sites derived from the SP5 promoter, was linked upstream of the firefly luciferase gene. The lentiviral constructs included a hygromycin resistance gene as a selectable marker. The SP5 promoter construct was used to transduce SW480 cells, a colon cancer cell line having a mutated APC gene that generates a truncated APC protein, leading to de-regulated accumulation of β-catenin.
# Cultured SW480 cells bearing a reporter construct were distributed at approximately 10,000 cells per well into 384 well multiwell plates. Compounds were then added to the wells in half-log dilutions using a three micromolar top concentration. A series of control wells for each cell type received only buffer and compound solvent. Twenty-four hours after the addition of compound, reporter activity for luciferases was assayed, for example, by addition of the BrightGlo luminescence reagent (Promega) and the Victor3 plate reader (Perkin Elmer). Readings were normalized to DMSO only treated cells, and normalized activities were then used for the IC50 calculations.
Molecule,EC50 (DYRK1A) [nM],Conc (nM) of Max. activity [1] [nM],Conc (nM) of 100% TGF-β3 activity [1] [nM],Max. Activity as % TGF-β3 activity [1] [%],IC50 ([2]; Homo sapiens) [nM],IC50 [2] [nM]
"CC(C)NC(=O)c1n[nH]c2ccc(-c3cncc(CN4CCCC4)c3)cc12 [Compound 129, N-Isopropyl-5-(5-(pyrrolidin-1-ylmethyl)pyridin-3-yl)-1H-indazole-3-carboxamide]",42,2700,2700,108,–,–
"Cc1ncc(NC(=O)c2n[nH]c3ccc(-c4cccnc4)cc23)cn1 [Compound 97, N-(2-Methylpyrimidin-5-yl)-5-(pyridin-3-yl)-1H-indazole-3-carboxamide]",556,2700,2700,98,–,–
"O=C(Nc1ccnc(C(F)(F)F)c1)c1n[nH]c2ccc(-c3cccnc3)cc12 [Compound 45, 5-(Pyridin-3-yl)-N-(2-(trifluoromethyl)pyridin-4-yl)-1H-indazole-3-carboxamide]",38,900,900,114,–,–
"CN1CCC(NC(=O)c2n[nH]c3ccc(-c4ccc(F)c(F)c4)cc23)CC1 [Compound 19, 5-(3,4-Difluorophenyl)-N-(1-methylpiperidin-4-yl)-1H-indazole-3-carboxamide]",848,–,–,–,6800,–
"CC(C)CN1CC(NC(=O)c2n[nH]c3ccc(-c4cncc(Cl)c4)cc23)C1 [Compound 1273, 5-(5-Chloropyridin-3-yl)-N-(1-isobutylazetidin-3-yl)-1H-indazole-3-carboxamide]",23,–,–,–,3300,–
"O=C(NC1CCN(CCF)CC1)c1n[nH]c2ccc(-c3cccc(F)c3F)cc12 [Compound 1160, 5-(2,3-Difluorophenyl)-N-(1-(2-fluoroethyl)piperidin-4-yl)-1H-indazole-3-carboxamide]",40,–,–,–,1100,–
"CN1CCC(NC(=O)c2n[nH]c3ccc(-c4cncc(C(F)(F)F)c4)cc23)CC1 [Compound 95, N-(1-Methylpiperidin-4-yl)-5-(5-(trifluoromethyl)pyridin-3-yl)-1H-indazole-3-carboxamide]",261,–,–,–,1070,–
"O=C(NC1CCNCC1)c1n[nH]c2ccc(-c3cccnc3)cc12 [Compound 3, N-(Piperidin-4-yl)-5-(pyridin-3-yl)-1H-indazole-3-carboxamide]",28,–,–,–,6440,–
"O=C(Nc1cccc2cccnc12)c1n[nH]c2ccc(-c3cncc(CN4CCCCC4)c3)cc12 [Compound 81, 5-(5-(Piperidin-1-ylmethyl)pyridin-3-yl)-N-(quinolin-8-yl)-1H-indazole-3-carboxamide]",312,–,–,–,7660,–
"CC(C)(F)CN1CCC(NC(=O)c2n[nH]c3ccc(-c4cccnc4)cc23)CC1 [Compound 1309, N-(1-(2-Fluoro-2-methylpropyl)piperidin-4-yl)-5-(pyridin-3-yl)-1H-indazole-3-carboxamide]",7,–,–,–,2260,–
"O=C(NC1CCNCC1)c1n[nH]c2ccc(-c3cccc(F)c3F)cc12 [Compound 254, 5-(2,3-Difluorophenyl)-N-(piperidin-4-yl)-1H-indazole-3-carboxamide]",66,–,–,–,7900,–
"O=C(NC1CCN(C2COC2)CC1)c1n[nH]c2ccc(-c3cccc(F)c3F)cc12 [Compound 1164, 5-(2,3-Difluorophenyl)-N-(1-(oxetan-3-yl)piperidin-4-yl)-1H-indazole-3-carboxamide]",49,–,–,–,1400,–
"CN(C)CCNC(=O)c1n[nH]c2ccc(-c3cccnc3)cc12 [Compound 1259, N-(2-(Dimethylamino)ethyl)-5-(pyridin-3-yl)-1H-indazole-3-carboxamide]",20,–,–,–,1800,–
"O=C(NC1CCC1)c1n[nH]c2ccc(-c3cccnc3)cc12 [Compound 5, N-Cyclobutyl-5-(pyridin-3-yl)-1H-indazole-3-carboxamide]",18,–,–,–,11900,–
"CC(C)(C)CN1CCC(NC(=O)c2n[nH]c3cc(F)c(-c4cccnc4)cc23)CC1 [Compound 1342, 6-Fluoro-N-(1-neopentylpiperidin-4-yl)-5-(pyridin-3-yl)-1H-indazole-3-carboxamide]",13,–,–,–,1400,–
5-(5-(Piperidin-1-ylmethyl)pyridin-3-yl)-N-(2-(pyrrolidin-1-yl)pyridin-4-yl)-1H-indazole-3-carboxamide [Compound 100],2,–,–,–,–,2600
"O=C(NC1CC1)c1n[nH]c2ccc(-c3cc(F)cc(CN4CCCCC4)c3)cc12 [Compound 11, N-Cyclopropyl-5-(3-fluoro-5-(piperidin-1-ylmethyl)phenyl)-1H-indazole-3-carboxamide]",36,–,–,–,7950,–
"O=C(NC1CCC(F)(F)CC1)c1n[nH]c2ccc(-c3cccnc3)cc12 [Compound 1283, N-(4,4-Difluorocyclohexyl)-5-(pyridin-3-yl)-1H-indazole-3-carboxamide]",2,–,–,–,1300,–
"O=C(NC1CC1)c1n[nH]c2ccc(-c3cncc(CN4CCCCC4)c3)cc12 [Compound 9, N-Cyclopropyl-5-(5-(piperidin-1-ylmethyl)pyridin-3-yl)-1H-indazole-3-carboxamide]",2,–,–,–,2910,–
"O=C(Nc1ccc(CN2CCCC2)cc1)c1n[nH]c2ccc(-c3cncc(F)c3)cc12 [Compound 1329, 5-(5-Fluoropyridin-3-yl)-N-(4-(pyrrolidin-1-ylmethyl)phenyl)-1H-indazole-3-carboxamide]",1,–,–,–,1700,–
"CN1CCC2(CC1)CC(NC(=O)c1n[nH]c3ccc(-c4cncc(Cl)c4)cc13)C2 [Compound 1276, 5-(5-Chloropyridin-3-yl)-N-(7-methyl-7-azaspiro[3.5]nonan-2-yl)-1H-indazole-3-carboxamide]",7,–,–,–,5200,–
"O=C(Nc1cccnc1)c1n[nH]c2ccc(-c3cccc(F)c3F)cc12 [Compound 96, 5-(2,3-Difluorophenyl)-N-(pyridin-3-yl)-1H-indazole-3-carboxamide]",134,–,–,–,4670,–
"CC(C)CN1CC(NC(=O)c2n[nH]c3ccc(-c4cncc(F)c4)cc23)C1 [Compound 1275, 5-(5-Fluoropyridin-3-yl)-N-(1-isobutylazetidin-3-yl)-1H-indazole-3-carboxamide]",28,–,–,–,2700,–
"CC(C)CN1CC(NC(=O)c2n[nH]c3ccc(-c4cncc(C(F)F)c4)cc23)C1 [Compound 1274, 5-(5-(Difluoromethyl)pyridin-3-yl)-N-(1-isobutylazetidin-3-yl)-1H-indazole-3-carboxamide]",20,–,–,–,1200,–
"CN1CCC(NC(=O)c2n[nH]c3ccc(-c4cc(F)cc(F)c4)cc23)CC1 [Compound 21, 5-(3,5-Difluorophenyl)-N-(1-methylpiperidin-4-yl)-1H-indazole-3-carboxamide]",744,–,–,–,1310,–
"CN1CCC(NC(=O)c2n[nH]c3ccc(-c4cncc(CN5CCC5)c4)cc23)CC1 [Compound 8, 5-(5-(Azetidin-1-ylmethyl)pyridin-3-yl)-N-(1-methylpiperidin-4-yl)-1H-indazole-3-carboxamide]",53,–,–,–,6290,–
